# Test results as given in PubChem BioAssay AID588671 (Sanford-Burnham Center for Chemical Genomics, 2011).
# The source made the active and inactive calls.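 Rule for the calls: active = IC50 at or below 20 µM; inactive = the rest.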
# Target: glucose-6-phosphate dehydrogenase-6-phosphogluconolactonase (PfGluPho), Plasmodium falciparum 3D7
# Assay: PfG6PD enzyme inhibitors, SAR follow-up, biochemical, fluorescence intensity, set 2 (AID 588671)
# Conditions: recombinant PfGluPho, diaphorase-resazurin NADPH fluorescence
row,IC50,Compound
1,> 80 µM (inactive),CN(C)CCNC(=O)c1ccc2c(c1)NC(=O)CO2
2,4.79 µM,CCN1CCC[C@H]1CNC(=O)c1ccc2c(c1)NC(=O)/C(=C/c1ccccc1F)S2
3,> 80 µM (inactive),CCN1CCCC1CNC(=O)c1ccc2c(c1)NC(=O)CO2 (configuration not stated)
4,inactive,O=C(NCCN1CCCCC1)c1ccc2c(c1)NC(=O)c1ccccc1O2
5,inactive,O=C1Nc2cc(C(=O)NCCN3CCCCC3)ccc2S/C1=C\c1ccccc1F
6,1.71 µM,CCN1CCCC1CNC(=O)c1ccc2c(c1)NC(=O)/C(=C/c1ccccc1F)S2 (configuration not stated)
7,inactive,CN1CCCC1CCNC(=O)c1ccc2c(c1)NC(=O)/C(=C/c1ccccc1F)S2 (configuration not stated)
8,inactive,CCN1CCCC1CNC(=O)c1ccc2c(c1)NC(=O)c1ccccc1O2 (configuration not stated)
9,> 80 µM (inactive),O=C1COc2ccc(C(=O)NCCN3CCCCC3)cc2N1
10,> 80 µM (inactive),O=C1COc2ccc(C(=O)NCCN3CCOCC3)cc2N1
11,> 80 µM (inactive),CCN1CCCC1CNC(=O)c1ccc2c(c1)NC(=O)CS2 (configuration not stated)
12,> 80 µM (inactive),CN1CCN(C(=O)c2ccc3c(c2)NC(=O)/C(=C/c2ccccc2Cl)S3)CC1
13,9.79 µM,CCN1CCCC1CNC(=O)c1ccc2c(c1)NC(=O)/C(=C/c1ccccc1OC)S2 (configuration not stated)
14,> 80 µM (inactive),CN(C)CCNC(=O)c1ccc2c(c1)NC(=O)c1ccccc1O2
15,inactive,CCN(CC)CCNC(=O)c1ccc2c(c1)NC(=O)c1ccccc1O2
16,> 80 µM (inactive),O=C1COc2ccc(C(=O)NCCN3CCCC3)cc2N1
17,inactive,O=C(NCCN1CCCC1)c1ccc2c(c1)NC(=O)c1ccccc1O2
18,5.93 µM,CCN1CCCC1CNC(=O)c1ccc2c(c1)NC(=O)/C(=C/c1ccccc1C)S2 (configuration not stated)
19,> 80 µM (inactive),CCN(CC)CCNC(=O)c1ccc2c(c1)NC(=O)CO2
20,inactive,O=C(NCCN1CCCC1)c1ccc2c(c1)NC(=O)c1ccccc1S2
21,> 80 µM (inactive),O=C1Nc2cc(C(=O)NCCN3CCOCC3)ccc2S/C1=C\c1ccccc1F
22,9.89 µM,CCN1CCCC1CNC(=O)c1ccc2c(c1)NC(=O)c1ccccc1S2 (configuration not stated)
23,> 80 µM (inactive),O=C1Nc2cc(C(=O)NCc3ccccc3)ccc2S/C1=C\c1ccccc1F
24,> 80 µM (inactive),O=C(NCCN1CCOCC1)c1ccc2c(c1)NC(=O)c1ccccc1O2
25,4.28 µM,CCN1CCCC1CNC(=O)c1ccc2c(c1)NC(=O)/C(=C/c1cccc3ccccc13)S2 (configuration not stated)
26,inactive,CCN(CC)CCNC(=O)c1ccc2c(c1)NC(=O)c1ccccc1S2
27,1.19 µM,CCN1CCC[C@@H]1CNC(=O)c1ccc2c(c1)NC(=O)/C(=C/c1ccccc1F)S2
